For this data set the following is noted: for surface tension liquid-gas: Pendant drop shape; for mass density: 101.33 kPa, Liquid, Vibrating tube method.

This passage reports surface tension liquid-gas and mass density results from the NIST ThermoML archive (doi:10.1016/j.jct.2018.12.042).

Numbers after ± are expanded uncertainties.

On to `ClCCCl` [1,2-dichloroethane], for which the surface tension liquid-gas reads like this: (293.15 K) 28 ± 0.52 mN/m; (298.15 K) 27.57 ± 0.51 mN/m; (303.15 K) 27.06 ± 0.5 mN/m; (308.15 K) 26.54 ± 0.49 mN/m; (313.15 K) 26.02 ± 0.48 mN/m.

Take `BrCCCBr` [1,3-dibromopropane]: the surface tension liquid-gas (293.15 K) is on record as 39.66 ± 0.72 mN/m; the surface tension liquid-gas (298.15 K) is given as 38.95 ± 0.71 mN/m; the surface tension liquid-gas (303.15 K) is reported as 38.33 ± 0.7 mN/m; the surface tension liquid-gas (308.15 K) is on record as 37.6 ± 0.68 mN/m; the surface tension liquid-gas (313.15 K) worked out at 37.12 ± 0.68 mN/m.

On to `ClCCCCl` [1,3-dichloropropane], for which the mass density (288.15 K) is 1189.09 ± 1.1 kg/m3; the mass density (293.15 K) stood at 1184.88 ± 1.1 kg/m3; the mass density (298.15 K) worked out at 1178.97 ± 1.1 kg/m3; the mass density (303.15 K) is recorded as 1173.1 ± 1.1 kg/m3; the mass density (308.15 K) came out at 1167.26 ± 1.1 kg/m3; the mass density (313.15 K) was 1161.46 ± 1.1 kg/m3. Also, the mass density reads like this: (318.15 K) 1154.88 ± 1.1 kg/m3; (328.15 K) 1142.62 ± 1.1 kg/m3. Further, the surface tension liquid-gas (293.15 K) is 31.22 ± 0.57 mN/m; the surface tension liquid-gas (298.15 K) was found to be 30.77 ± 0.57 mN/m; the surface tension liquid-gas (303.15 K) was 30.2 ± 0.56 mN/m; the surface tension liquid-gas (308.15 K) was determined as 29.36 ± 0.54 mN/m; the surface tension liquid-gas (313.15 K) turned out to be 28.7 ± 0.53 mN/m.

Take `BrCCCCCCBr` [1,6-dibromohexane]: the surface tension liquid-gas runs as follows: (293.15 K) 38.92 ± 0.71 mN/m; (298.15 K) 38.36 ± 0.7 mN/m; (303.15 K) 37.78 ± 0.69 mN/m; (308.15 K) 37.21 ± 0.68 mN/m; (313.15 K) 36.63 ± 0.67 mN/m.

For the molecule `CCCCCCO` [hexan-1-ol], the surface tension liquid-gas came to 26.34 ± 0.49 mN/m (288.15 K); 26.06 ± 0.48 mN/m (293.15 K); 25.71 ± 0.48 mN/m (298.15 K); 25.34 ± 0.47 mN/m (303.15 K); 24.9 ± 0.5 mN/m (308.15 K); 24.52 ± 0.46 mN/m (313.15 K). The surface tension liquid-gas (318.15 K) was 24.12 ± 0.45 mN/m. In addition, the mass density (298.15 K) worked out at 815.18 ± 1 kg/m3.

In the case of `BrCBr` [dibromomethane], the surface tension liquid-gas is, setting by setting: (293.15 K) 38.5 ± 0.7 mN/m; (298.15 K) 37.76 ± 0.69 mN/m; (303.15 K) 37.09 ± 0.68 mN/m; (308.15 K) 36.32 ± 0.66 mN/m; (313.15 K) 35.55 ± 0.65 mN/m.

As for `CCCCCO` [pentan-1-ol], the surface tension liquid-gas runs as follows: (293.15 K) 25.17 ± 0.47 mN/m; (298.15 K) 24.85 ± 0.46 mN/m; (303.15 K) 24.4 ± 0.5 mN/m; (308.15 K) 23.96 ± 0.45 mN/m; (313.15 K) 23.62 ± 0.44 mN/m; (318.15 K) 23.28 ± 0.44 mN/m. Besides, the mass density (298.15 K) came to 810.84 ± 1 kg/m3.

In the case of `BrCCCCBr` [1,4-dibromobutane], the surface tension liquid-gas (293.15 K) stood at 39.91 ± 0.72 mN/m; the surface tension liquid-gas (298.15 K) is 39.46 ± 0.72 mN/m; the surface tension liquid-gas (303.15 K) is given as 38.92 ± 0.71 mN/m; the surface tension liquid-gas (308.15 K) is recorded as 38.29 ± 0.7 mN/m; the surface tension liquid-gas (313.15 K) amounted to 37.67 ± 0.68 mN/m.

For the molecule `O` [water], the surface tension liquid-gas runs as follows: (288.15 K) 73.43 ± 1.2 mN/m; (293.15 K) 72.84 ± 1.2 mN/m; (298.15 K) 72.14 ± 1.2 mN/m.

On to `ClCCCCCl` [1,4-dichlorobutane], for which the surface tension liquid-gas reads like this: (293.15 K) 33.73 ± 0.62 mN/m; (298.15 K) 33.15 ± 0.61 mN/m; (303.15 K) 32.55 ± 0.6 mN/m; (308.15 K) 32.1 ± 0.59 mN/m; (313.15 K) 31.59 ± 0.58 mN/m.

With `BrCCCCCBr` [1,5-dibromopentane], the surface tension liquid-gas is 39.37 ± 0.71 mN/m (293.15 K); 38.65 ± 0.7 mN/m (298.15 K); 38.16 ± 0.69 mN/m (303.15 K); 37.6 ± 0.68 mN/m (308.15 K); 37.23 ± 0.68 mN/m (313.15 K).

For `ClCCCCCCCl` [1,6-dichlorohexane], the surface tension liquid-gas runs as follows: (293.15 K) 35 ± 0.71 mN/m; (298.15 K) 34.31 ± 0.69 mN/m; (303.15 K) 33.73 ± 0.68 mN/m; (308.15 K) 33.09 ± 0.67 mN/m; (313.15 K) 32.7 ± 0.66 mN/m.

As to `ClCCCCCCl` [1,5-dichloropentane], the mass density is, setting by setting: (288.15 K) 1103.31 ± 1 kg/m3; (293.15 K) 1100.06 ± 1 kg/m3; (298.15 K) 1095.01 ± 1 kg/m3; (303.15 K) 1089.95 ± 1 kg/m3; (308.15 K) 1084.89 ± 1 kg/m3; (313.15 K) 1079.84 ± 1 kg/m3. Further, the mass density turned out to be 1074.67 ± 1 kg/m3 (318.15 K) and 1064.63 ± 1 kg/m3 (328.15 K). Besides, the surface tension liquid-gas came to 35.02 ± 0.64 mN/m (293.15 K); 34.43 ± 0.63 mN/m (298.15 K); 33.85 ± 0.62 mN/m (303.15 K); 33.22 ± 0.61 mN/m (308.15 K); 32.78 ± 0.6 mN/m (313.15 K).

`BrCCBr` [1,2-dibromoethane]: the surface tension liquid-gas reads like this: (293.15 K) 38.81 ± 0.7 mN/m; (298.15 K) 38.07 ± 0.69 mN/m; (303.15 K) 37.48 ± 0.68 mN/m; (308.15 K) 36.75 ± 0.67 mN/m; (313.15 K) 36.1 ± 0.66 mN/m.
